Patent US20170333560A1, “Pharmaceutical Composition That Includes A Neutral Carrier Treated With Energy And Related Methods Of Treatment” (priority 2016, published 2017)

Assays:
[1] = tested on: pseudoneurotic disorder in patients with organic brain disease; assay: Study of pseudoneurotic disorder in organic brain disease (anxiety levels, Hamilton scale); type: in vivo, human
Method: (§1) A study was conducted to examine the efficacy of the claimed drug, formulated as a water solution (liquid dosage form) of the activated (potentized) energy-treated carrier, obtained by multiple consecutive dilution of the initial matrix solution in an aqueous-alcoholic diluent, combined with external mechanical impact—shaking of each resulting dilution, to a degree of 100^200, equivalent to a centesimal (C200) homeopathic dilution (wherein the energy treatment of the initial neutral carrier has been accomplished by exposing it to an electric current caused by a difference of potentials being applied to electrodes placed in the initial liquid carrier and which is proportional in amplitude to an amplified combined, summed signal, formed by summing the resultant signals—biopotential differences of individual referential derivations recorded in five healthy donors using the internationally recognized 10-20 system, which involves 19 active recording electrodes placed in regular positions all over the scalp and one reference electrode located on the ear-lobe)—further referred to as AP drug—in treating pseudoneurotic disorder in patients with organic brain disease. […]

[2] = tested on: scopolamine-induced amnesia in male albino Wistar rats; assay: Scopolamine-induced amnesia for passive avoidance conditioning; type: in vivo, rat
Method: A study was conducted to evaluate the nootropic effect of the claimed drug, formulated as a water solution (liquid dosage form) of the activated (potentized) energy-treated carrier, obtained by multiple consecutive dilution of the initial matrix solution in an aqueous-alcoholic diluent, combined with external mechanical impact—shaking of each resulting dilution, to a degree of 100^200, equivalent to a centesimal (C200) homeopathic dilution (wherein the energy treatment of the initial liquid carrier has been accomplished by exposing it to an electric current caused by a difference of potentials being applied to electrodes placed in the initial liquid carrier and which is proportional in amplitude to an amplified combined, summed signal, formed by summing the resultant signals—biopotential differences of individual referential derivations recorded in five healthy donors using the internationally recognized 10-20 system, which involves 19 active recording electrodes placed in regular positions all over the scalp and one reference electrode located on the ear-lobe)—further referred to as AP drug, using standard experimental approaches—by examining the test drug's antiamnestic effects in scopolamine-induced amnesia for passive avoidance conditioning in sexually mature rats. A total of 36 male albino Wistar rats were used for the study.
For amnesia induction, 15 minutes prior to passive avoidance training, the animals were administered a single intraperitoneal dose (2 mg/kg) of a muscarinic receptor antagonist—scopolamine.
AP drug was administered to 12 rats intragastrically, at 2.5 ml/kg daily, prior to training (1 hour before the start of the experiment), immediately after training, 24 hours post training, and 1 hour prior to the passive avoidance recall test. […]
On the memory recall test, the rats' behavior was evaluated by examining: latency time taken by test animals to first enter the dark compartment and total time spent therein over a certain time period.
The conditioning of passive avoidance behavior was as follows: On day 1, the animals were trained to stay in a shuttle box, which consisted of a large, 300×300×250 mm, white illuminated compartment (with transparent walls) and a smaller, 150×150×180 mm, black dark compartment with an electrical grid floor. […] For 3 minutes, the total times of the rat's stay in the small compartment and latency before moving in were recorded. […]
The data gathered were recorded as the mean (M) and standard error of the mean (SEM). […] The results of examining the rats' memory recall were analyzed for statistical significance with the Wilcoxon test. […]

[3] = tested on: children with clinical signs and symptoms of a hyperkinetic disorder (HD); assay: Comparative study versus piracetam in children with hyperkinetic disorder (SNAP-IV, TOVA, fine motor skills); type: in vivo, human; settings: for TOVA Commission errors, % / TOVA Omission errors, % / TOVA Response time: after two months
From the text: The study included 57 children aged from 6 to 9 years (40 boys and 17 girls), who were nursery/preschool attendants and primary school students.
The inclusion criteria were: 1. Children with clinical signs and symptoms of a hyperkinetic disorder (HD) meeting the ICD-10 criteria (F 90); 2. Age range: 6 to 9 years; 3. At least a medium IQ score (90 points) on the Wechsler Intelligence Scale.
The study excluded children with behavior disturbances related to other mental disorders. Children with HD signs and symptoms who were allocated to the group of test treatment (n=30) received AP drug as a monotherapy, at 2 tablets 3 times daily for 2 months.
This assessment was repeated following two months of treatment with AP drug (test group) and piracetam (control group). The scores obtained were compared with the normative rating results and statistically analyzed (Table 11).
The computer-based psychophysiological TOVA assessment involved three sets of tests measuring inattention (omission errors), impulsivity (commission errors), and speed of information processing (response time). The baseline measurements of HD children were compared with those obtained in the test group (AP drug) and in the control group (piracetam) after two months of treatment.

[4] = tested on: male albino Wistar rats; assay: Porsolt forced swimming test; type: in vivo, rat; settings: compared to controls; single intragastric dose
Method: as §1, with “evaluate” for “examine”, “antidepressant effect” for “efficacy”, “summed up” for “summed”, “drug, using standard experimental approaches—by examining animals' depression-like behavior (behavioral despair)” for “drug—in treating pseudoneurotic disorder”, “the Porsolt forced swimming test and Nomura's model employing forced-rotating-wheel swim test.” for “patients with organic brain disease.”

[5] = tested on: male albino Wistar rats; assay: Nomura forced-rotating-wheel swim test; type: in vivo, rat; settings: compared to controls; single intragastric dose; 10 minutes
Method: as §1, with “evaluate” for “examine”, “antidepressant effect” for “efficacy”, “summed up” for “summed”, “drug, using standard experimental approaches—by examining animals' depression-like behavior (behavioral despair)” for “drug—in treating pseudoneurotic disorder”, “the Porsolt forced swimming test and Nomura's model employing forced-rotating-wheel swim test.” for “patients with organic brain disease.”

## O=C1CN=C(c2ccccc2Cl)c2cc(Br)ccc2N1 [phenazepam]
[1]; after treatment
  Hamilton scale score: 31.7±1.5
[1]; baseline score
  Hamilton scale score: 32.8±1.4

## NC(=O)CN1CCCC1=O [piracetam]
[2]; Memory recall
  Latency to enter the aversive compartment: 53.71 s
  Time spent in the black compartment: 13.11 s
[2]; Training
  Latency to enter the aversive compartment: 11.07 s
  Time spent in the black compartment: 21.1 s
[3]; 2 months
  Children with increased disinhibition/excitability: 11.1%
  Children with sleep problems: 26%
[3]; First section
  TOVA Commission errors, %: 12.5 ± 3.2%
  TOVA Omission errors, %: 13.6 ± 1.4 %
  TOVA Response time: 736 ± 83 ms
[3]; Second section
  TOVA Commission errors, %: 21.1 ± 2.7%
  TOVA Omission errors, %: 17.2 ± 2.8 %
  TOVA Response time: 656 ± 79 ms
[3]; after treatment completion
  Total score for fine motor skills: 1.62 ± 0.16
[3]; after two months of treatment
  SNAP-IV Attention problems: 2.48 ± 0.12
  SNAP-IV Hyperactivity: 2.41 ± 0.10
  SNAP-IV Impulsivity: 2.28 ± 0.22

## CN(C)CCC=C1c2ccccc2CCc2ccccc21 [reference compound, amitriptyline]
[4]
  Reduction of immobility time: 56%
[5]
  Increase of number of wheel rotations: 67%
